{"source": "patent US20080004344A1", "about": "“Novel Salts of Fumaric Acid Monoalkylesters and Their Pharmaceutical Use” (ADITECH PHARMA AB, priority 2004, published 2008)", "format_in_all_cases": "cell-based, human", "key": {"[1]": {"system": "IL-2", "test": "T cell specific stimulation of PBMC (CD3/CD28 beads), IL-2 ELISA", "conditions": "for IL-2 Conc: CD3/CD28 beads", "description": "(§1) PBMC were isolated from blood of two healthy volunteers (person) via Ficoll density gradient centrifugation. The purified cells were used in parallel cultures for monocyte stimulations using Lipopolysaccharide (LPS) and T cell specific stimulations using bead-coupled antibodies directed against the T cell activation antigens CD3 and CD28.\n(§2) Cultures were incubated in a tissue culture incubator at 37° C., 5% CO2 for 20 h, culture supernatants were harvested at the end of the culture period and used for cytokine quantitation. The measured cytokines in cell culture supernatants from either monocyte stimulation cultures (IL-8, IL-10, TNF-α) or T cell stimulation cultures (IL-2, IL-4) were quantitated with ELISAs (Becton Dickinson) according to the manufacturers instructions. The resulting optical density (OD) was measured on a Packard Fusion Reader and OD values were translated to cytokine concentrations (in pg/ml) with the use of the Fusion Reader Data Analysis Software."}, "[2]": {"system": "IL-4", "test": "T cell specific stimulation of PBMC (CD3/CD28 beads), IL-4 ELISA", "conditions": "for IL-4 Conc: CD3/CD28 beads", "description": "as §1, §2"}, "[3]": {"system": "TNF-alpha", "test": "Monocyte stimulation cultures of PBMC (LPS or unstimulated), TNF-alpha ELISA", "description": "as §1, §2"}}, "data": [{"substance": "di-strontium-tetrakis-(mono methyl fumarate)-tetra hydrate [strontium MMF]", "values": [{"measurement": "IL-2 Conc", "setting": "[1]; 1 μM MMF, Donor 1", "value": 5787, "unit": "pg/mL"}, {"measurement": "IL-2 Conc", "setting": "[1]; 1 μM MMF, Donor 2", "value": 2559, "unit": "pg/mL"}, {"measurement": "IL-2 Conc", "setting": "[1]; 3 μM MMF, Donor 1", "value": 4699, "unit": "pg/mL"}, {"measurement": "IL-2 Conc", "setting": "[1]; 3 μM MMF, Donor 2", "value": 1754, "unit": "pg/mL"}, {"measurement": "IL-2 Conc", "setting": "[1]; 10 μM MMF, Donor 1", "value": 5901, "unit": "pg/mL"}, {"measurement": "IL-2 Conc", "setting": "[1]; 10 μM MMF, Donor 2", "value": 1905, "unit": "pg/mL"}, {"measurement": "IL-2 Conc", "setting": "[1]; 30 μM MMF, Donor 1", "value": 4592, "unit": "pg/mL"}, {"measurement": "IL-2 Conc", "setting": "[1]; 30 μM MMF, Donor 2", "value": 2079, "unit": "pg/mL"}, {"measurement": "IL-2 Conc", "setting": "[1]; 100 μM MMF, Donor 1", "value": 170, "unit": "pg/mL"}, {"measurement": "IL-2 Conc", "setting": "[1]; 100 μM MMF, Donor 2", "value": 65, "unit": "pg/mL"}, {"measurement": "IL-2 Conc", "setting": "[1]; 300 μM MMF, Donor 1", "value": 2, "unit": "pg/mL"}, {"measurement": "IL-2 Conc", "setting": "[1]; 300 μM MMF, Donor 2", "value": 0, "unit": "pg/mL"}, {"measurement": "IL-2 Conc", "setting": "[1]; 1 mM MMF, Donor 1", "value": 0, "unit": "pg/mL"}, {"measurement": "IL-2 Conc", "setting": "[1]; 1 mM MMF, Donor 2", "value": 1, "unit": "pg/mL"}, {"measurement": "IL-2 Conc", "setting": "[1]; 3 mM MMF, Donor 1", "value": 1, "unit": "pg/mL"}, {"measurement": "IL-2 Conc", "setting": "[1]; 3 mM MMF, Donor 2", "value": 3, "unit": "pg/mL"}, {"measurement": "effect on IL-2 secretion", "setting": "[1]; after T-cell stimulation", "value": "co-induction"}, {"measurement": "IL-4 Conc", "setting": "[2]; 1 μM MMF, Donor 1", "value": 60, "unit": "pg/mL"}, {"measurement": "IL-4 Conc", "setting": "[2]; 1 μM MMF, Donor 2", "value": 12, "unit": "pg/mL"}, {"measurement": "IL-4 Conc", "setting": "[2]; 3 μM MMF, Donor 1", "value": 70, "unit": "pg/mL"}, {"measurement": "IL-4 Conc", "setting": "[2]; 3 μM MMF, Donor 2", "value": 10, "unit": "pg/mL"}, {"measurement": "IL-4 Conc", "setting": "[2]; 10 μM MMF, Donor 1", "value": 69, "unit": "pg/mL"}, {"measurement": "IL-4 Conc", "setting": "[2]; 10 μM MMF, Donor 2", "value": 12, "unit": "pg/mL"}, {"measurement": "IL-4 Conc", "setting": "[2]; 30 μM MMF, Donor 1", "value": 92, "unit": "pg/mL"}, {"measurement": "IL-4 Conc", "setting": "[2]; 30 μM MMF, Donor 2", "value": 20, "unit": "pg/mL"}, {"measurement": "IL-4 Conc", "setting": "[2]; 100 μM MMF, Donor 1", "value": 3, "unit": "pg/mL"}, {"measurement": "IL-4 Conc", "setting": "[2]; 100 μM MMF, Donor 2", "value": 0, "unit": "pg/mL"}, {"measurement": "IL-4 Conc", "setting": "[2]; 300 μM MMF, Donor 1", "value": 0, "unit": "pg/mL"}, {"measurement": "IL-4 Conc", "setting": "[2]; 300 μM MMF, Donor 2", "value": 0, "unit": "pg/mL"}, {"measurement": "IL-4 Conc", "setting": "[2]; 1 mM MMF, Donor 1", "value": 0, "unit": "pg/mL"}, {"measurement": "IL-4 Conc", "setting": "[2]; 1 mM MMF, Donor 2", "value": 0, "unit": "pg/mL"}, {"measurement": "IL-4 Conc", "setting": "[2]; 3 mM MMF, Donor 1", "value": 0, "unit": "pg/mL"}, {"measurement": "IL-4 Conc", "setting": "[2]; 3 mM MMF, Donor 2", "value": 0, "unit": "pg/mL"}, {"measurement": "effect on IL-4 secretion", "setting": "[2]; after T-cell stimulation", "value": "co-induction"}, {"measurement": "TNF-alpha Conc", "setting": "[3]; LPS 1 ng/ml, 1 μM MMF, Donor 1", "value": 464, "unit": "pg/mL"}, {"measurement": "TNF-alpha Conc", "setting": "[3]; LPS 1 ng/ml, 1 μM MMF, Donor 2", "value": 459, "unit": "pg/mL"}, {"measurement": "TNF-alpha Conc", "setting": "[3]; LPS 1 ng/ml, 3 μM MMF, Donor 1", "value": 631, "unit": "pg/mL"}, {"measurement": "TNF-alpha Conc", "setting": "[3]; LPS 1 ng/ml, 3 μM MMF, Donor 2", "value": 650, "unit": "pg/mL"}, {"measurement": "TNF-alpha Conc", "setting": "[3]; LPS 1 ng/ml, 10 μM MMF, Donor 1", "value": 1624, "unit": "pg/mL"}, {"measurement": "TNF-alpha Conc", "setting": "[3]; LPS 1 ng/ml, 10 μM MMF, Donor 2", "value": 2559, "unit": "pg/mL"}, {"measurement": "TNF-alpha Conc", "setting": "[3]; LPS 1 ng/ml, 30 μM MMF, Donor 1", "value": 1787, "unit": "pg/mL"}, {"measurement": "TNF-alpha Conc", "setting": "[3]; LPS 1 ng/ml, 30 μM MMF, Donor 2", "value": 3289, "unit": "pg/mL"}, {"measurement": "TNF-alpha Conc", "setting": "[3]; LPS 1 ng/ml, 100 μM MMF, Donor 1", "value": 250, "unit": "pg/mL"}, {"measurement": "TNF-alpha Conc", "setting": "[3]; LPS 1 ng/ml, 100 μM MMF, Donor 2", "value": 711, "unit": "pg/mL"}, {"measurement": "TNF-alpha Conc", "setting": "[3]; LPS 1 ng/ml, 300 μM MMF, Donor 1", "value": 20, "unit": "pg/mL"}, {"measurement": "TNF-alpha Conc", "setting": "[3]; LPS 1 ng/ml, 300 μM MMF, Donor 2", "value": 96, "unit": "pg/mL"}, {"measurement": "TNF-alpha Conc", "setting": "[3]; LPS 1 ng/ml, 1 mM MMF, Donor 1", "value": 0, "unit": "pg/mL"}, {"measurement": "TNF-alpha Conc", "setting": "[3]; LPS 1 ng/ml, 1 mM MMF, Donor 2", "value": 11, "unit": "pg/mL"}, {"measurement": "TNF-alpha Conc", "setting": "[3]; LPS 1 ng/ml, 3 mM MMF, Donor 1", "value": 0, "unit": "pg/mL"}, {"measurement": "TNF-alpha Conc", "setting": "[3]; LPS 1 ng/ml, 3 mM MMF, Donor 2", "value": 0, "unit": "pg/mL"}, {"measurement": "effect on TNF-alpha secretion", "setting": "[3]; LPS-stimulated monocytes", "value": "co-stimulatory"}, {"measurement": "effect on TNF-alpha secretion", "setting": "[3]; as single stimulant (unstimulated monocytes)", "value": "induced"}, {"measurement": "TNF-alpha Conc", "setting": "[3]; no LPS printed for these rows, 1 μM MMF, Donor 1", "value": 29, "unit": "pg/mL"}, {"measurement": "TNF-alpha Conc", "setting": "[3]; no LPS printed for these rows, 1 μM MMF, Donor 2", "value": 13, "unit": "pg/mL"}, {"measurement": "TNF-alpha Conc", "setting": "[3]; no LPS printed for these rows, 3 μM MMF, Donor 1", "value": 38, "unit": "pg/mL"}, {"measurement": "TNF-alpha Conc", "setting": "[3]; no LPS printed for these rows, 3 μM MMF, Donor 2", "value": 10, "unit": "pg/mL"}, {"measurement": "TNF-alpha Conc", "setting": "[3]; no LPS printed for these rows, 10 μM MMF, Donor 1", "value": 570, "unit": "pg/mL"}, {"measurement": "TNF-alpha Conc", "setting": "[3]; no LPS printed for these rows, 10 μM MMF, Donor 2", "value": 47, "unit": "pg/mL"}, {"measurement": "TNF-alpha Conc", "setting": "[3]; no LPS printed for these rows, 30 μM MMF, Donor 1", "value": 1343, "unit": "pg/mL"}, {"measurement": "TNF-alpha Conc", "setting": "[3]; no LPS printed for these rows, 30 μM MMF, Donor 2", "value": 682, "unit": "pg/mL"}, {"measurement": "TNF-alpha Conc", "setting": "[3]; no LPS printed for these rows, 100 μM MMF, Donor 1", "value": 313, "unit": "pg/mL"}, {"measurement": "TNF-alpha Conc", "setting": "[3]; no LPS printed for these rows, 100 μM MMF, Donor 2", "value": 236, "unit": "pg/mL"}, {"measurement": "TNF-alpha Conc", "setting": "[3]; no LPS printed for these rows, 300 μM MMF, Donor 1", "value": 3, "unit": "pg/mL"}, {"measurement": "TNF-alpha Conc", "setting": "[3]; no LPS printed for these rows, 300 μM MMF, Donor 2", "value": 12, "unit": "pg/mL"}, {"measurement": "TNF-alpha Conc", "setting": "[3]; no LPS printed for these rows, 1 mM MMF, Donor 1", "value": 0, "unit": "pg/mL"}, {"measurement": "TNF-alpha Conc", "setting": "[3]; no LPS printed for these rows, 1 mM MMF, Donor 2", "value": 3, "unit": "pg/mL"}, {"measurement": "TNF-alpha Conc", "setting": "[3]; no LPS printed for these rows, 3 mM MMF, Donor 1", "value": 0, "unit": "pg/mL"}, {"measurement": "TNF-alpha Conc", "setting": "[3]; no LPS printed for these rows, 3 mM MMF, Donor 2", "value": 0, "unit": "pg/mL"}]}]}
